Experimental data published in PMC4369186 (European journal of pharmacology, 2015).
Where two headings read alike, the source gives them in different places.

Target: T1, hVAChT (Homo sapiens, UniProt Q16572)
T1 sequence (Q16572 1-532): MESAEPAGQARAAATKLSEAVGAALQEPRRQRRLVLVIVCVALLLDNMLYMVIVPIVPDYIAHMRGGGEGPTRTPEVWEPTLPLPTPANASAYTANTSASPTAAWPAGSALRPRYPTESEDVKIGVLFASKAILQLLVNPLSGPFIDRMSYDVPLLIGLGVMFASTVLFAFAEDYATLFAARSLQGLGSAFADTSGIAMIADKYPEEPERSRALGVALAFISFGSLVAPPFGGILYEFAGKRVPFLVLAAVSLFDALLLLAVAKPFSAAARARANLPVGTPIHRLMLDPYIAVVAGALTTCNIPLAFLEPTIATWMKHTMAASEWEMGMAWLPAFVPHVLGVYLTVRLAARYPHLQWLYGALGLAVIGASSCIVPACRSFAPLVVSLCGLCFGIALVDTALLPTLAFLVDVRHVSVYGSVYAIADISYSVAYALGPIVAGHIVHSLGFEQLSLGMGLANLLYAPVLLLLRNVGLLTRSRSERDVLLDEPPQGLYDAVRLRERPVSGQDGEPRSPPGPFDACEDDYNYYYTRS
Assay: Competitive binding assay with
Conditions: for inhibition of (-)-[^3H]TZ659 binding to VAChT: competitive binding studies, other CNS receptor ligands

[1] = radioligand (-)-[^3H]TZ659 2 nM, test ligands 0.1 nM to 10 μM, 60 min, 25 °C

Row | SMILES | Ki [nM] | inhibition of (-)-[^3H]TZ659 binding to VAChT | Ki [1] [nM]
1 | CC(C)=CCN1CC[C@]2(C)c3cc(O)ccc3C[C@H]1[C@H]2C [(+)-Pentazocine] | > 1000 | No inhibition | –
2 | COc1cc2c(cc1OC)[C@H]1C[C@@H](O)[C@H](CC(C)C)CN1CC2 [DTBZ] | – | No inhibition | > 1000
3 | COc1cc2c(cc1OC)CN(CCCCNC(=O)c1cc(C)ccc1OCCF)CC2 [ISO-1] | – | No inhibition | > 1000
4 | Cn1cc(-c2ccncc2)c(-c2ccc(OCc3ccc4ccccc4n3)cc2)n1 [MP-10] | – | No inhibition | > 1000
5 | CCc1cc(Cl)c(OC)c(C(=O)NC[C@@H]2CCCN2CC)c1O [S-(-)-Eticlopride] | – | No inhibition | > 1000
6 | COc1ccccc1N1CCN(CC(C(=O)NC(C)(C)C)c2ccccc2)CC1 (stereo not drawn) [WAY-100135] | – | No inhibition | > 1000
